ChEMBL document CHEMBL4765316, “Discovery of novel resorcinol diphenyl ether-based PROTAC-like molecules as dual inhibitors and degraders of PD-L1” (Eur J Med Chem, 2020)
Blank lines part the entries; values can stand above or below the compound they belong to. Activity calls are given as the source filed them. The rule behind the calls is not given here.

How the values were obtained:
[1] = molecular target: Programmed cell death protein 1/Programmed cell death 1 ligand 1 (Homo sapiens, UniProt Q9NZQ7); assay: Inhibition of PD-1/PDL1 protein-protein interaction (unknown origin) by HTRF assay; type: protein-complex assay
A549 = assay: Antiproliferative activity against human A549 cells assessed as reduction in cell viability incubated for 48 hrs by CCK8 assay; type: functional, cell-based; conditions: A549, 48 h
NCI-H1299 = assay: Antiproliferative activity against human H1299 cells assessed as reduction in cell viability incubated for 48 hrs by CCK8 assay; type: functional, cell-based; conditions: NCI-H1299, 48 h
B16-F10 = assay: Antiproliferative activity against mouse B16-F10 cells assessed as reduction in cell viability incubated for 48 hrs by CCK8 assay; type: functional, cell-based; conditions: B16-F10, 48 h
Jurkat = assay: Antiproliferative activity against human jurkat cells assessed as reduction in cell viability incubated for 48 hrs by CCK8 assay; type: functional, cell-based
MDA-MB-231 = assay: Antiproliferative activity against human MDA-MB-231 cells assessed as reduction in cell viability incubated for 48 hrs by CCK8 assay; type: functional, cell-based; conditions: MDA-MB-231, 48 h
[2] = molecular target: T1, Protein cereblon/Programmed cell death 1 ligand 1 (Homo sapiens) (UniProt Q9NZQ7+Q96SW2); assay: Protac like activity at CRBN/PD-L1 in human MDA-MB-231 cells assessed as reduction in cell surface PD-L1 expression at 10 uM measured after 24 hrs by Western blotting analysis relative to control; type: functional, cell-based; set-up: scale not given: the % may be the effect or the level left
Homo sapiens [3] = species on record: Homo sapiens; assay: Inhibition of PD1/PDL1 protein-protein interaction in human PBMC-derived CD3-positive T cells co-cultured with human Hep3B cells expressing human PDL1/OS-8 assessed as increase in IFN-gamma secretion measured after 72 hrs by ELISA relative to control; conditions: dose 3.3-10 µM
[4] = molecular target: T1, Protein cereblon/Programmed cell death 1 ligand 1 (Homo sapiens); assay: Protac like activity at CRBN/PD-L1 in human MDA-MB-231 cells assessed as reduction in cell surface PD-L1 expression at 10 uM measured after 24 hrs by flow cytometry relative to control; type: functional, cell-based; set-up: scale not given: the % may be the effect or the level left
[5] = molecular target: T1, Protein cereblon/Programmed cell death 1 ligand 1 (Homo sapiens); assay: Protac like activity at CRBN/PD-L1 in human MDA-MB-231 cells assessed as reduction in cell surface PD-L1 expression at 1 to 10 uM in presence of bafilomycin lysosomal measured after 24 hrs by Western blotting analysis relative to control; type: functional, cell-based; conditions: dose 1-10 µM
[6] = molecular target: T1, Protein cereblon/Programmed cell death 1 ligand 1 (Homo sapiens); assay: Protac like activity at CRBN/PD-L1 in human MDA-MB-231 cells assessed as reduction in cell surface PD-L1 expression at 1 uM measured after 24 hrs by Western blotting analysis relative to control; type: functional, cell-based; set-up: scale not given: the % may be the effect or the level left
Homo sapiens [7] = species on record: Homo sapiens; assay: Inhibition of PD1/PDL1 protein-protein interaction in human PBMC-derived CD3-positive T cells co-cultured with human Hep3B cells expressing human PDL1/OS-8 assessed as increase in IFN-gamma secretion at 3.3 uM measured after 72 hrs by ELISA relative to control; set-up: scale not given: the % may be the effect or the level left
[8] = molecular target: T1, Protein cereblon/Programmed cell death 1 ligand 1 (Homo sapiens); assay: Protac like activity at CRBN/PD-L1 in human MDA-MB-231 cells assessed as reduction in cell surface PD-L1 expression at 1 to 10 uM in presence of MG132 proteasome inhibitor measured after 24 hrs by Western blotting analysis relative to control; type: functional, cell-based; conditions: dose 1-10 µM

Programmed cell death protein 1/Programmed cell death 1 ligand 1, sequence (Q15116 whole entry): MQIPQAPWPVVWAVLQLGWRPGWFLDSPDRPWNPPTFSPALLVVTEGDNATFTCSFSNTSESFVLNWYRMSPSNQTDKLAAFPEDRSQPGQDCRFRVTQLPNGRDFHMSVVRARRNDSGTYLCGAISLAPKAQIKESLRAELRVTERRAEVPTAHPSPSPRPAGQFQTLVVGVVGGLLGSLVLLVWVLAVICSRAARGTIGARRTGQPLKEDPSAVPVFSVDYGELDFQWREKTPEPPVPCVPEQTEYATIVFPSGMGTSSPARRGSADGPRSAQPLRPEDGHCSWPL
Programmed cell death protein 1/Programmed cell death 1 ligand 1, sequence (Q9NZQ7 whole entry): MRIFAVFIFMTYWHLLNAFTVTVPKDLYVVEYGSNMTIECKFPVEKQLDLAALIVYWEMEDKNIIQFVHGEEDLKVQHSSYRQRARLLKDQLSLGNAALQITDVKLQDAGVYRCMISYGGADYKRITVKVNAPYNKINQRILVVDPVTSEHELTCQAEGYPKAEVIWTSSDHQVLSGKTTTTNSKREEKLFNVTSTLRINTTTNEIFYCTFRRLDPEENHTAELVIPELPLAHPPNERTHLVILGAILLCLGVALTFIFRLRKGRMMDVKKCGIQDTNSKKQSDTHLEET
T1 sequence (Q96SW2 whole entry, looked up): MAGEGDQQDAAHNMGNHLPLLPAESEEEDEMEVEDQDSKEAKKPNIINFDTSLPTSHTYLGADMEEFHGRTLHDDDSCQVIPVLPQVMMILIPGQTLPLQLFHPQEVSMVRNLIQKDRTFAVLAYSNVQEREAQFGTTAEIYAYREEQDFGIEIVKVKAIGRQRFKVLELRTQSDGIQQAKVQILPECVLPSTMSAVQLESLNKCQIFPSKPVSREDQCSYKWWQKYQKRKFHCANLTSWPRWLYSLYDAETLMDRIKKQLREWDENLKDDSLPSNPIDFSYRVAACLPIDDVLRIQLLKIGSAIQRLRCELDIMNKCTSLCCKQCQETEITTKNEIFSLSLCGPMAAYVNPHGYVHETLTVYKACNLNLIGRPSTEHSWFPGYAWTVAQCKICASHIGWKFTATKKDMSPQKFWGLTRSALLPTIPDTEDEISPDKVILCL
T1 sequence (Q9NZQ7 whole entry, looked up): as the sequence (Q9NZQ7 whole entry) above

Structure (SMILES): Cc1c(COc2cc(OCc3cccc(C#N)c3)c(CN3CCCCC3C(=O)NCCNC(=O)CCCC(=O)Nc3ccc4c(c3)C(=O)N(C3CCC(=O)NC3=O)C4=O)cc2Cl)cccc1-c1ccc2c(c1)OCCO2 (configuration not stated)
IC50 [1]: > 200 nM

Structure (SMILES): Cc1c(COc2cc(OCc3cccc(C#N)c3)c(CN3CCCCC3C(=O)NCCCCCNc3cccc4c3C(=O)N(C3CCC(=O)NC3=O)C4=O)cc2Cl)cccc1-c1ccccc1 (configuration not stated)
IC50 [1]: 171 nM

Structure (SMILES): Cc1c(COc2cc(OCc3cccc(C#N)c3)c(CN3CCCCC3C(=O)NCCCCCCNc3cccc4c3C(=O)N(C3CCC(=O)NC3=O)C4=O)cc2Cl)cccc1-c1ccc2c(c1)OCCO2 (configuration not stated)
IC50 [1]: > 200 nM

Structure (SMILES): Cc1c(COc2cc(OCc3cccc(C#N)c3)c(CN3CCCCC3C(=O)NCCNC(=O)CCC(=O)Nc3cccc4c3C(=O)N(C3CCC(=O)NC3=O)C4=O)cc2Cl)cccc1-c1ccccc1 (configuration not stated)
IC50 [1]: 98.8 nM

Structure (SMILES): Cc1c(COc2cc(OCc3cccc(C#N)c3)c(CN3CCCCC3C(=O)NCCNC(=O)CCCC(=O)Nc3ccc4c(c3)C(=O)N(C3CCC(=O)NC3=O)C4=O)cc2Cl)cccc1-c1ccccc1 (configuration not stated)
IC50 [1]: 102 nM

Structure (SMILES): Cc1c(COc2cc(OCc3cccc(C#N)c3)c(CN3CCCCC3C(=O)NCCCNc3cccc4c3C(=O)N(C3CCC(=O)NC3=O)C4=O)cc2Cl)cccc1-c1ccc2c(c1)OCCO2 (configuration not stated)
IC50 [1]: 135 nM

Structure (SMILES): Cc1c(COc2cc(OCc3cccc(C#N)c3)c(CN3CCCCC3C(=O)NCCNC(=O)COCC(=O)Nc3cccc4c3C(=O)N(C3CCC(=O)NC3=O)C4=O)cc2Cl)cccc1-c1ccc2c(c1)OCCO2 (configuration not stated)
IC50 [1]: > 200 nM

Structure (SMILES): Cc1c(COc2ccc(CN3CCCCC3C(=O)NCCCCNc3cccc4c3C(=O)N(C3CCC(=O)NC3=O)C4=O)cc2Br)cccc1-c1ccccc1 (configuration not stated)
IC50 [1]: 197 nM

IC50 (A549): > 10000 nM
IC50 (NCI-H1299): > 10000 nM
IC50 (B16-F10): 10800 nM
IC50 (Jurkat): > 11700 nM
IC50 (MDA-MB-231): > 10000 nM
Structure (SMILES): Cc1c(COc2cc(OCc3cccc(C#N)c3)c(CN3CCCCC3C(=O)N3CCN(C(=O)CCCC(=O)Nc4cccc5c4C(=O)N(C4CCC(=O)NC4=O)C5=O)CC3)cc2Cl)cccc1-c1ccccc1 (configuration not stated)
IC50 [1]: 26.1 nM

IC50 (A549): > 10000 nM
IC50 (NCI-H1299): 9700 nM
IC50 (B16-F10): 11400 nM
IC50 (Jurkat): > 10000 nM
IC50 (MDA-MB-231): > 10000 nM
Structure (SMILES): Cc1c(COc2cc(OCc3cccc(C#N)c3)c(CN3CCCCC3C(=O)N3CCN(C(=O)CCC(=O)Nc4cccc5c4C(=O)N(C4CCC(=O)NC4=O)C5=O)CC3)cc2Cl)cccc1-c1ccccc1 (configuration not stated)
IC50 [1]: 44.5 nM

Structure (SMILES): Cc1c(COc2cc(OCc3cccc(C#N)c3)c(CN3CCCCC3C(=O)NCCCCCCNc3cccc4c3C(=O)N(C3CCC(=O)NC3=O)C4=O)cc2Cl)cccc1-c1ccccc1 (configuration not stated)
IC50 [1]: > 200 nM

IC50 (A549): 8200 nM
IC50 (NCI-H1299): 10500 nM
IC50 (B16-F10): > 10000 nM
IC50 (Jurkat): > 10000 nM
IC50 (MDA-MB-231): > 10000 nM
Structure (SMILES): Cc1c(COc2cc(OCc3cccc(C#N)c3)c(CN3CCCCC3C(=O)NCCCCNc3cccc4c3C(=O)N(C3CCC(=O)NC3=O)C4=O)cc2Cl)cccc1-c1ccccc1 (configuration not stated)
IC50 [1]: 52.8 nM

Structure (SMILES): Cc1c(COc2ccc(CN3CCCCC3C(=O)NCCNC(=O)CCCC(=O)Nc3cccc4c3C(=O)N(C3CCC(=O)NC3=O)C4=O)cc2Br)cccc1-c1ccccc1 (configuration not stated)
IC50 [1]: > 200 nM

IC50 (A549): > 10000 nM
IC50 (NCI-H1299): > 10000 nM
IC50 (B16-F10): > 10000 nM
IC50 (Jurkat): > 10000 nM
IC50 (MDA-MB-231): > 10000 nM
Structure (SMILES): Cc1c(COc2cc(OCc3cccc(C#N)c3)c(CN3CCCCC3C(=O)NCCCCNc3cccc4c3C(=O)N(C3CCC(=O)NC3=O)C4=O)cc2Cl)cccc1-c1ccc2c(c1)OCCO2 (configuration not stated)
IC50 [1]: 103 nM

Structure (SMILES): Cc1c(COc2cc(OCc3cccc(C#N)c3)c(CN3CCCCC3C(=O)NCCNC(=O)CCC(=O)Nc3cccc4c3C(=O)N(C3CCC(=O)NC3=O)C4=O)cc2Cl)cccc1-c1ccc2c(c1)OCCO2 (configuration not stated)
IC50 [1]: > 200 nM

Structure (SMILES): Cc1c(COc2cc(OCc3cccc(C#N)c3)c(CN3CCCCC3C(=O)NCCCCCNC(=O)CCCC(=O)Nc3cccc4c3C(=O)N(C3CCC(=O)NC3=O)C4=O)cc2Cl)cccc1-c1ccccc1 (configuration not stated)
IC50 [1]: > 200 nM

Structure (SMILES): Cc1c(COc2cc(OCc3cccc(C#N)c3)c(CN3CCCCC3C(=O)NCCCCNC(=O)CCCC(=O)Nc3cccc4c3C(=O)N(C3CCC(=O)NC3=O)C4=O)cc2Cl)cccc1-c1ccccc1 (configuration not stated)
IC50 [1]: 121 nM

Structure (SMILES): Nc1cccc2c1C(=O)N(C1CCC(=O)NC1=O)C2=O (configuration not stated) [POMALIDOMIDE]
IC50 [1]: > 10 nM

Structure (SMILES): Cc1c(COc2cc(OCc3cccc(C#N)c3)c(CN3CCCCC3C(=O)NCCCCCNc3cccc4c3C(=O)N(C3CCC(=O)NC3=O)C4=O)cc2Cl)cccc1-c1ccc2c(c1)OCCO2 (configuration not stated)
IC50 [1]: 193 nM

Structure (SMILES): Cc1c(COc2cc(OCc3cccc(C#N)c3)c(CN3CCCCC3C(=O)NCCCNC(=O)CCC(=O)Nc3cccc4c3C(=O)N(C3CCC(=O)NC3=O)C4=O)cc2Cl)cccc1-c1ccccc1 (configuration not stated)
IC50 [1]: > 200 nM

Structure (SMILES): Cc1c(COc2cc(OCc3cccc(C#N)c3)c(CN3CCCCC3C(=O)NCCNC(=O)COCC(=O)Nc3cccc4c3C(=O)N(C3CCC(=O)NC3=O)C4=O)cc2Cl)cccc1-c1ccccc1 (configuration not stated)
IC50 [1]: > 200 nM

Structure (SMILES): Cc1c(COc2cc(OCc3cccc(C#N)c3)c(CN3CCCCC3C(=O)NCCNC(=O)CCCC(=O)Nc3cccc4c3C(=O)N(C3CCC(=O)NC3=O)C4=O)cc2Cl)cccc1-c1ccccc1 (configuration not stated)
IC50 [1]: 123 nM

Structure (SMILES): Cc1c(COc2cc(OCc3cccc(C#N)c3)c(CN3CCCCC3C(=O)NCCCNc3cccc4c3C(=O)N(C3CCC(=O)NC3=O)C4=O)cc2Cl)cccc1-c1ccccc1 (configuration not stated)
IC50 [1]: 97.3 nM

IC50 (A549): > 10000 nM
IC50 (NCI-H1299): > 10000 nM
Activity (Homo sapiens [3]): Dose-dependent effect
IC50 (B16-F10): > 10000 nM
IC50 (Jurkat): > 10000 nM
IC50 (MDA-MB-231): > 10000 nM
Activity (Homo sapiens [7]): 215%
Structure (SMILES): Cc1c(COc2cc(OCc3cccc(C#N)c3)c(CN3CCCCC3C(=O)N3CCN(C(=O)CCCC(=O)Nc4cccc5c4C(=O)N(C4CCC(=O)NC4=O)C5=O)CC3)cc2Cl)cccc1-c1ccc2c(c1)OCCO2 (configuration not stated)
Activity [2]: 35%
IC50 [1]: 39.2 nM
Activity [4]: 14%
Activity [5]: inactive
Activity [6]: 21%
Activity [8]: Active

Structure (SMILES): Cc1c(COc2cc(OCc3cccc(C#N)c3)c(CN3CCCCC3C(=O)NCCNc3cccc4c3C(=O)N(C3CCC(=O)NC3=O)C4=O)cc2Cl)cccc1-c1ccccc1 (configuration not stated)
IC50 [1]: 118 nM

IC50 (A549): 9200 nM
IC50 (NCI-H1299): > 10000 nM
IC50 (B16-F10): 7300 nM
IC50 (Jurkat): > 10000 nM
IC50 (MDA-MB-231): > 10000 nM
Structure (SMILES): Cc1c(COc2cc(OCc3cccc(C#N)c3)c(CN3CCCCC3C(=O)N3CCN(C(=O)CCC(=O)Nc4cccc5c4C(=O)N(C4CCC(=O)NC4=O)C5=O)CC3)cc2Cl)cccc1-c1ccc2c(c1)OCCO2 (configuration not stated)
IC50 [1]: 25.2 nM

Structure (SMILES): Cc1c(COc2cc(OCc3cccc(C#N)c3)c(CN3CCCCC3C(=O)NCCNc3cccc4c3C(=O)N(C3CCC(=O)NC3=O)C4=O)cc2Cl)cccc1-c1ccc2c(c1)OCCO2 (configuration not stated)
IC50 [1]: 144 nM

Structure (SMILES): Cc1c(COc2cc(OCc3cccc(C#N)c3)c(CN3CCCCC3C(=O)NCCNC(=O)CCCC(=O)Nc3cccc4c3C(=O)N(C3CCC(=O)NC3=O)C4=O)cc2Cl)cccc1-c1ccc2c(c1)OCCO2 (configuration not stated)
IC50 [1]: > 200 nM

Structure (SMILES): Cc1c(COc2ccc(CN3CCCCC3C(=O)N3CCN(C(=O)CCCC(=O)Nc4cccc5c4C(=O)N(C4CCC(=O)NC4=O)C5=O)CC3)cc2Br)cccc1-c1ccccc1 (configuration not stated)
IC50 [1]: > 200 nM

Structure (SMILES): Cc1c(COc2cc(OCc3cccc(C#N)c3)c(CN3CCCCC3C(=O)O)cc2Cl)cccc1-c1ccc2c(c1)OCCO2 (configuration not stated)
IC50 [1]: 56.6 nM
